According to BindingDB's records for patent US20250313563 (The Broad Institute, 2025):
“And” between values parts separate entries of the source, which are not always exact repeats. Equal values may be shown once.

Experiments:
[1] = molecular target: Glycogen synthase kinase-3 beta (Homo sapiens, UniProt P49841); experiment: TR-FRET Assay
Summary of the method: (§1)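 30 min preinc w/ cpd in assay buffer → kinase rxn → EDTA quench → add detection mix (40 nM SA-d2, 2 nM Tb-pSer641 Ab) → TR-FRET read.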

[2] = molecular target: Glycogen synthase kinase-3 alpha (Homo sapiens, UniProt P49840); experiment: TR-FRET Assay
Summary of the method: as §1

Sequence of Glycogen synthase kinase-3 alpha (P49840 whole entry): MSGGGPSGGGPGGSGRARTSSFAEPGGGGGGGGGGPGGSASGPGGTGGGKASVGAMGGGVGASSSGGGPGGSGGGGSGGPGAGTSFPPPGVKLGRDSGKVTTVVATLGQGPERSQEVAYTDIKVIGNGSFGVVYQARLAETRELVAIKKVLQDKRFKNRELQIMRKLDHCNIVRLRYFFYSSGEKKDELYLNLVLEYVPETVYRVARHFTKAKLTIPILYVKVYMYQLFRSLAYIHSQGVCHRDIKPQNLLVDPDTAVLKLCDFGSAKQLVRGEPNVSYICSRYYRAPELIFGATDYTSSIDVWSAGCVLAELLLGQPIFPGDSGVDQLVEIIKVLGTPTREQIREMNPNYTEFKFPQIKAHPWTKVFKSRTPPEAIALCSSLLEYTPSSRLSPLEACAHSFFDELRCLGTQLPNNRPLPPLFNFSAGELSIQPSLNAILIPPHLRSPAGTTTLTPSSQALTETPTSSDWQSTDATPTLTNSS
Sequence of Glycogen synthase kinase-3 beta (P49841 whole entry): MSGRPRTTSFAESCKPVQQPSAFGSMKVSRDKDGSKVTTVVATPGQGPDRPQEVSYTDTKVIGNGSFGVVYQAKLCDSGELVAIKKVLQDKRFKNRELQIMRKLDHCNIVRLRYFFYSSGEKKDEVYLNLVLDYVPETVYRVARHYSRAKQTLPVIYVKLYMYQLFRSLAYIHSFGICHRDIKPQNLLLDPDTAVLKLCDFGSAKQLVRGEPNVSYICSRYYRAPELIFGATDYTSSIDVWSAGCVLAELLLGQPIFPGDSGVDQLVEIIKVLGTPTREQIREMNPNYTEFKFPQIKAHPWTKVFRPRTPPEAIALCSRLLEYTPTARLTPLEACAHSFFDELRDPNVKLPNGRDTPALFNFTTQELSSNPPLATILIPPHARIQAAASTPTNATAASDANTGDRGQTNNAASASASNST

Row | SMILES | IC50 [1] | IC50 [2]
1 | CCN(C(C)=O)c1cccc(C2(CC)C3=CN=NC3NC3=C2C(=O)CC(C)(C)C3)c1 (stereo unspecified) [US20250313563, Compound 884109] | < 100 nM | < 100 nM
2 | CC1(C)CC(=O)C2=C(C1)NC1=C(CN=N1)[C@@]21CCCC(C)(C)C1 [US20250313563, Compound 883846] | 1000 to 5000 nM | 100 to 1000 nM
3 | CC[C@]1(c2cccc(C(F)(F)F)c2)C2=C(N=NC2)NC2=C1C(=O)NC2 [US20250313563, Compound 917157] | > 5000 nM | > 5000 nM
4 | CCC1(c2cccc(-c3cnn(C4CC4)c3)c2)C2=C(CC(C)(C)CC2=O)NC2N=NC(C)=C21 (stereo unspecified) [US20250313563, Compound 883997] | 100 to 1000 nM | < 100 nM
5 | CC1(C)CC(=O)C2=C(C1)NC1=C(CN=N1)C21CCN(CC(F)F)CC1 [US20250313563, Compound 883962] | 100 to 1000 nM | 100 to 1000 nM
6 | CCC1(c2cccc(N(C)C(=O)C3CCCCC3)c2)C2=CN=NC2NC2=C1C(=O)CC(C)(C)C2 (stereo unspecified) [US20250313563, Compound 912065] | 100 to 1000 nM | < 100 nM
7 | CCn1nccc1-c1cccc(C2(CC)C3=CN=NC3NC3=C2C(=O)CC(C)(C)C3)c1 (stereo unspecified) [US20250313563, Compound 929398] | < 100 nM | < 100 nM
8 | CC[C@]1(c2cccc(C(F)(F)F)c2)C2=C(N=NC2)NC2=C1C(=O)N(Cc1ccccc1)[C@@H]2C [US20250313563, Compound 930330] | 100 to 1000 nM | < 100 nM
9 | CCC1(c2cccc(S(=O)(=O)CC3CC3)c2)C2=CN=NC2NC2=C1C(=O)CC(C)(C)C2 (stereo unspecified) [US20250313563, Compound 913257] | < 100 nM | < 100 nM
10 | CCC1(c2cccc(N(C)c3nccc(OC)n3)c2)C2=CN=NC2NC2=C1C(=O)CC(C)(C)C2 (stereo unspecified) [US20250313563, Compound 929387] | < 100 nM | < 100 nM
11 | CCC1(c2cccc(COC)c2)C2=CN=NC2NC2=C1C(=O)CC(C)(C)C2 (stereo unspecified) [US20250313563, Compound 801323] | 100 to 1000 nM | < 100 nM
12 | CC[C@@]1(c2ccccc2)C2=CN=NC2NC2=C1C(=O)[C@H](F)C(C)(C)C2 (stereo partly specified) [US20250313563, Compound 826766] | 100 to 1000 nM | 100 to 1000 nM
13 | CC[C@@]1(c2cccc(-c3cnn(C)c3)c2)C2=CN=NC2NC2=C1C(=O)C[C@H](C)C2 (stereo partly specified) [US20250313563, Compound 823724] | 1000 to 5000 nM | 100 to 1000 nM
14 | CC(C)(C)CC1N=NC2=C1[C@@](C)(c1cccc(S(=O)(=O)C(F)(F)F)c1)C1=C(CC(C)(C)CC1=O)N2 (stereo partly specified) [US20250313563, Compound 126396] | > 5000 nM | > 5000 nM
15 | CC1(C)CC(=O)C2=C(NC3=C(CN=N3)C23CCOCC3)[C@@H]1F [US20250313563, Compound 883834] | 1000 to 5000 nM | 100 to 1000 nM
16 | O=C1CC2(CCC2)CC2=C1C1(CCOCC1)C1=C(N=NC1)N2 [US20250313563, Compound 909208] | 100 to 1000 nM | < 100 nM
17 | CC[C@]1(c2cccc(-c3ccnc(C)c3)c2)C2=CN=NC2NC2=C1C(=O)N[C@@H](C)C2 (stereo partly specified) [US20250313563, Compound 926299] | > 5000 nM | 1000 to 5000 nM
18 | CC[C@@]1(c2cccc(C(F)(F)F)c2)C2=CN=NC2NC2=C1C(=O)N(C)C(C)(C)C2 (stereo partly specified) [US20250313563, Compound 826791] | 1000 to 5000 nM | 100 to 1000 nM
19 | CC[C@@]1(c2cccc(-c3ccncc3)c2)C2=CN=NC2NC2=C1C(=O)C[C@H](C)C2 (stereo partly specified) [US20250313563, Compound 874316] | 1000 to 5000 nM | 100 to 1000 nM
20 | CC[C@]1(c2cccc(-c3ccncc3)c2)C2=CN=NC2NC2=C1C(=O)C[C@@H](C)C2 (stereo partly specified) [US20250313563, Compound 874317] | < 100 nM | < 100 nM
21 | CC[C@@]1(c2cccc(C3CC3)c2)C2=CN=NC2NC2=C1C(=O)CC(C)(C)C2 (stereo partly specified) [US20250313563, Compound 811558] | > 5000 nM | 1000 to 5000 nM
22 | CC[C@H]1C[C@@]2(CO1)C1=C(N=NC1)NC1=C2C(=O)CC(C)(C)C1 [US20250313563, Compound 913216] | 100 to 1000 nM | 100 to 1000 nM
23 | CN1CCC2(C1)C1=C(N=NC1)NC1=C2C(=O)CC(C)(C)C1 (stereo unspecified) [US20250313563, Compound 841867] | > 5000 nM | > 5000 nM
24 | CC1(C)CC(=O)C2=C(C1)NC1=C(CN=N1)C21CC2(CCCC2)C1 [US20250313563, Compound 874477] | < 100 nM and 1000 to 5000 nM | < 100 nM and 100 to 1000 nM
25 | CCC1(c2cccc(C(F)(F)F)c2)C2=C(N=NC2)NC2=C1C(=O)N(Cc1ccccc1)C2 (stereo unspecified) [US20250313563, Compound 917159] | 100 to 1000 nM | < 100 nM
26 | CCC1(c2cccc(C(F)(F)F)c2)C2=CN=NC2NC2=C1C(=O)NCC2 (stereo unspecified) [US20250313563, Compound 870263] | > 5000 nM | 100 to 1000 nM

More lines, now with the values ahead:

Row | IC50 [1] | IC50 [2] | SMILES
27 | 100 to 1000 nM | < 100 nM | Cc1ccc(C)c(C(=O)N2CC3(C2)CC2(CO3)C3=C(N=NC3)NC3=C2C(=O)CC(C)(C)C3)c1 (stereo unspecified) [US20250313563, Compound 947285]
28 | < 100 nM | < 100 nM | Cc1cc([C@H]2CC[C@]3(CC2)C2=C(N=NC2)NC2=C3C(=O)CC(C)(C)C2)ccn1 [US20250313563, Compound 948415]
29 | > 5000 nM | 100 to 1000 nM | CC[C@]1(c2cccc(-c3ccnc(C)c3)c2)C2=C(CC(C)(C)NC2=O)NC2N=NC(Cl)=C21 (stereo partly specified) [US20250313563, Compound 949421]
30 | < 100 nM | < 100 nM | CCC1(c2cccc(-c3ccnc(C)c3F)c2)C2=C(CC(C)(C)NC2=O)NC2N=NC(C(F)(F)F)=C21 (stereo unspecified) [US20250313563, Compound 948297]
31 | < 100 nM | < 100 nM | CC1(C)CC(=O)C2=C(C1)NC1=C(CN=N1)C21CCN(S(=O)(=O)c2cnn3c2OCCC3)CC1 [US20250313563, Compound 947483]
32 | < 100 nM | < 100 nM | CC[C@]1(c2cccc(-c3ccncc3C)c2)C2=C(CC(C)(C)CC2=O)NC2N=NC(C(F)(F)F)=C21 (stereo partly specified) [US20250313563, Compound 947324]
33 | < 100 nM | < 100 nM | CC[C@]1(c2cccc(-c3c(F)cncc3OC)c2)C2=CN=NC2NC2=C1C(=O)CC(C)(C)C2 (stereo partly specified) [US20250313563, Compound 947511]
34 | < 100 nM | < 100 nM | COC(=O)C1(c2ccccc2)CC2(C1)C1=C(N=NC1)NC1=C2C(=O)CC(C)(C)C1 (stereo unspecified) [US20250313563, Compound 942366]
35 | > 5000 nM | 1000 to 5000 nM | CCc1cc(-c2cccc([C@@]3(CC)C4=CN=NC4NC4=C3C(=O)NC(C)(C)C4)c2)ccn1 (stereo partly specified) [US20250313563, Compound 948360]
36 | < 100 nM and 1000 to 5000 nM | < 100 nM and 100 to 1000 nM | CC[C@]1(c2cccc(-c3c(C#N)cnn3C)c2)C2=C(CC(C)(C)NC2=O)NC2N=NC(C)=C21 (stereo partly specified) [US20250313563, Compound 952410]
37 | < 100 nM | < 100 nM | CCC1(c2cccc(-c3ccncc3C)c2)C2=CN=NC2NC2=C1C(=O)NC(C)(C)C2 (stereo unspecified) [US20250313563, Compound 945461]
38 | 100 to 1000 nM | < 100 nM | CC[C@]1(c2cccc(-c3ccnc(C)c3)c2)C2=CN=NC2NC2=C1C(=O)N[C@@]1(CCOC1)C2 (stereo partly specified) [US20250313563, Compound 948140]
39 | 100 to 1000 nM | < 100 nM | CCC1(c2cccc(C(C)C)c2)C2=C(N=NC2)NC2=C1C(=O)NC(C)(C)C2 (stereo unspecified) [US20250313563, Compound 949326]
40 | < 100 nM and 100 to 1000 nM | < 100 nM | CC[C@]1(c2cccc(Oc3ncccn3)c2)C2=C(CC(C)(C)NC2=O)NC2N=NC(Cl)=C21 (stereo partly specified) [US20250313563, Compound 951606]
41 | < 100 nM and 100 to 1000 nM | < 100 nM and 100 to 1000 nM | CC(C)S(=O)(=O)N1CCC2(CC1)C1=C(N=NC1)NC1=C2C(=O)CC(C)(C)[C@@H]1F [US20250313563, Compound 951714]
42 | 100 to 1000 nM | < 100 nM | CC[C@]1(c2cccc(-c3ccnc(C)c3)c2)C2=C(CC3(CCOCC3)NC2=O)NC2N=NC(C)=C21 (stereo partly specified) [US20250313563, Compound 948513]
43 | < 100 nM | < 100 nM | CC[C@]1(c2cccc(S(C)(=O)=O)c2)C2=C(CC(C)(C)NC2=O)NC2N=NC(C(F)(F)F)=C21 (stereo partly specified) [US20250313563, Compound 948418]
44 | > 5000 nM | > 5000 nM | CC[C@]1(c2ccccc2)C2=CN=NC2NC2=C1C(=O)CC(C)(C)[C@@H]2F (stereo partly specified) [US20250313563, Compound 957196]
45 | > 5000 nM | 1000 to 5000 nM | CC[C@]1(c2cccc(-c3cc(C)nn3C)c2)C2=C(CC(C)(C)CC2=O)NC2N=NC(C(F)(F)F)=C21 (stereo partly specified) [US20250313563, Compound 947383]
46 | 1000 to 5000 nM | 100 to 1000 nM | CC[C@@]1(c2cccc(-c3c(F)cncc3OC)c2)C2=CN=NC2NC2=C1C(=O)CC(C)(C)[C@H]2F (stereo partly specified) [US20250313563, Compound 948547]
47 | < 100 nM | < 100 nM | CCC1(c2cccc(-c3ccncc3C)c2)C2=C(CC(C)(C)NC2=O)NC2N=NC(C)=C21 (stereo unspecified) [US20250313563, Compound 945599]
48 | < 100 nM | < 100 nM | Cc1cccc(S(=O)(=O)N2CC[C@@]3(C2)C2=C(N=NC2)NC2=C3C(=O)CC(C)(C)C2)c1 [US20250313563, Compound 943489]
49 | < 100 nM | < 100 nM | CCC1(c2cccc(C3=CN=NC3)c2)C2=C(CC(C)(C)NC2=O)NC2N=NC(C)=C21 (stereo unspecified) [US20250313563, Compound 945459]
50 | 100 to 1000 nM | < 100 nM | CC[C@@]1(c2cccc(C(F)F)c2)C2=C(CC(C)(C)CC2=O)NC2N=NC(C(F)(F)F)=C21 (stereo partly specified) [US20250313563, Compound 945708]
51 | > 5000 nM | 1000 to 5000 nM | CC[C@]1(c2cccc(-c3cc(C)nnc3C)c2)C2=CN=NC2NC2=C1C(=O)NC(C)(C)C2 (stereo partly specified) [US20250313563, Compound 949334]
52 | 100 to 1000 nM | 100 to 1000 nM | CC[C@]1(c2cccc(-c3ccnc4c3CCC4)c2)C2=C(CC(C)(C)NC2=O)NC2N=NC(C(F)(F)F)=C21 (stereo partly specified) [US20250313563, Compound 948769]
53 | > 5000 nM | > 5000 nM | CC[C@]1(c2cccc(-c3cnn(C(C)(C)C)c3)c2)C2=CN=NC2NC2=C1C(=O)NC(C)(C)C2 (stereo partly specified) [US20250313563, Compound 949107]
